Values quoted from earlier work as cited in patent US20190321427A1, “Compositions to Treat Anal Fissures” (G&S Laboratories, Inc., priority 2018, published 2019).
Read-outs that look alike come from different tables or passages of the source.

Test system: anal fissures

Compound | healing rates (anal fissure, literature (Poh, 2010)) | common side effect (topical treatment of anal fissure) | healing rates (in vivo)
O=[N+]([O-])OCC(CO[N+](=O)[O-])O[N+](=O)[O-] [nitroglycerin] | 40-70% | headache | –
botulinum toxin | – | – | 30-96%
